Results taken from the supplement of paper PMC8633005.

Tests used:
Assay in all cases: drug sensitivity score (DSS) (DSS (unitless, 0-50 scale)); higher = more sensitive (stronger viability inhibition); extreme values may be limits of the assay
Details in all cases: 72 h; culture: 2D
WM165 = test system: WM165
In short: (§1)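 Viability was measured by CellTiter-Glo luminescence after 72 h at 37 °C in 384-well plates holding a 527-compound oncology library, with patient-derived melanoma cultures (1000–1500 cells per well) and melanoma cell lines grown in 2D. Every compound was tested at five concentrations spanning a 10,000-fold range. The drug sensitivity score, a modified area under the curve, came from dose-response curves fitted with in-house Breeze software.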

SK-MEL-2 = test system: SK-MEL-2
In short: as §1

FM-MEL-6 = test system: FM-MEL-6
In short: as §1

FM-MEL-2 = test system: FM-MEL-2
In short: as §1

Bowes = test system: Bowes
In short: as §1

SK-MEL-28 = test system: SK-MEL-28
In short: as §1

FM-MEL-3 = test system: FM-MEL-3
In short: as §1

WM852 = test system: WM852
In short: as §1

| SMILES | drug sensitivity score (WM165) | drug sensitivity score (SK-MEL-2) | drug sensitivity score (FM-MEL-6) | drug sensitivity score (FM-MEL-2) | drug sensitivity score (Bowes) | drug sensitivity score (SK-MEL-28) | drug sensitivity score (FM-MEL-3) | drug sensitivity score (WM852) |
| --- | --- | --- | --- | --- | --- | --- | --- | --- |
| NC(=O)NO [Hydroxyurea] | 0.1 | 0 | 2.2 | 0 | 2.4 | 0 | 6.8 | 0 |
| CCOc1ccn(-c2ccc(F)cc2)c(=O)c1C(=O)Nc1ccc(Oc2ccnc(N)c2Cl)c(F)c1 | 0 | 0 | 0 | 0 | 0 | 0 | 0 | 0 |
| O=C(NOC[C@H](O)CO)c1ccc(F)c(F)c1Nc1ccc(I)cc1F | 18.6 | 11.1 | 11.4 | 14.5 | 0.5 | 18 | 26.8 | 3.8 |
| CC#CC(=O)N1CCC[C@H]1c1nc(-c2ccc(C(=O)Nc3ccccn3)cc2)c2c(N)nccn12 [Acalabrutinib] | 0 | 0 | 3.4 | 1 | 0 | 0 | 2.2 | 0 |
| CNC(=O)[C@@H](NC(=O)[C@H](CC(C)C)[C@H](O)C(=O)NO)C(C)(C)C [Marimastat] | 0.6 | 0 | 0 | 0 | 0 | 0 | 0 | 0 |
| NC1(c2ccc(-c3nc4ccn5c(=O)[nH]nc5c4cc3-c3ccccc3)cc2)CCC1 [MK-2206] | 1.1 | 0 | 1.9 | 2.6 | 0 | 2 | 0.9 | 0.4 |
| Clc1ccc(Nc2nnc(Cc3ccncc3)c3ccccc23)cc1 [Vatalanib] | 0 | 0 | 0 | 0 | 0 | 0 | 0 | 0 |
| COc1cc2c(N3CCN(C(=O)Nc4ccc(OC(C)C)cc4)CC3)ncnc2cc1OCCCN1CCCCC1 [Tandutinib] | 0 | 0 | 0 | 0 | 0 | 0 | 0 | 0 |
| O=C(/C=C\n1cnc(-c2cc(C(F)(F)F)cc(C(F)(F)F)c2)n1)NNc1ccccn1 [Verdinexor] | 9.3 | 2.3 | 4 | 4.2 | 4.1 | 5 | 5.3 | 2 |
| C/C=C1\NC(=O)[C@H]2CSSCC/C=C/[C@H](CC(=O)N[C@H](C(C)C)C(=O)N2)OC(=O)[C@H](C(C)C)NC1=O [Romidepsin] | 30 | 30.4 | 26.5 | 28.1 | 18.6 | 29 | 29.7 | 17.9 |
| C[C@@H](Oc1ccc2[nH]nc(/C=C/c3cnn(CCO)c3)c2c1)c1c(Cl)cncc1Cl | 4.3 | 0.3 | 2 | 0 | 6 | 1.3 | 2.1 | 3.2 |
| O=C(Nc1c[nH]nc1-c1nc2ccc(CN3CCOCC3)cc2[nH]1)NC1CC1 [AT9283] | 8 | 2.3 | 0 | 0 | 8 | 2.9 | 0 | 2.9 |
| CC1(C)NC(=O)N(c2ccc([N+](=O)[O-])c(C(F)(F)F)c2)C1=O [Nilutamide] | 0 | 0 | 0 | 0 | 1.1 | 0 | 0.4 | 0 |
| Cn1ncc(Cl)c1-c1cc(C(=O)N[C@H](CN)Cc2ccc(F)c(F)c2)oc1Cl [Uprosertib] | 1.1 | 0 | 0 | 1.2 | 0 | 0.5 | 0 | 0 |
| CN(C)C(=N)NC(=N)N [Metformin] | 0 | 0 | 0 | 0 | 0 | 0 | 0 | 0 |
| C=CC(=O)Nc1cccc(Nc2nc(Nc3ccc(OCCOC)cc3)ncc2F)c1 [Spebrutinib] | 1.1 | 0 | 1 | 0.9 | 2.1 | 0.7 | 1 | 0.9 |
| CS(=O)(=O)CCNCc1ccc(-c2ccc3ncnc(Nc4ccc(OCc5cccc(F)c5)c(Cl)c4)c3c2)o1 [Lapatinib] | 0 | 0 | 0.1 | 0.6 | 1.1 | 0 | 0.2 | 0 |
| Nc1cccc2c1CN(C1CCC(=O)NC1=O)C2=O (stereo not drawn) [Lenalidomide] | 0 | 0 | 0 | 0 | 0 | 0 | 0 | 0 |
| CN1CCN(c2ccc3nc(-c4c(N)c5c(F)cccc5[nH]c4=O)[nH]c3c2)CC1 [Dovitinib] | 0.3 | 0 | 0 | 0 | 0.5 | 0 | 0 | 0 |
| CC(C)C(=O)Nc1ccc([N+](=O)[O-])c(C(F)(F)F)c1 [Flutamide] | 0 | 0 | 0 | 0 | 0.1 | 0 | 0.5 | 0.5 |
| CCN(CC)CCCC(C)Nc1c2ccc(Cl)cc2nc2ccc(OC)cc12 (stereo not drawn) [Mepacrine] | 17.1 | 13.6 | 14.2 | 15.1 | 19.6 | 10.3 | 9.9 | 17 |
